For 27 compounds, IC50 results are on record in US20080161366A1, “AMINOALKYL SUBSTITUTED ARYL SULFAMIDE DERIVATIVES AND METHODS OF THEIR USE” (Wyeth, priority 2006, published 2008).

Counter-ions that a name gives are not always drawn.

The target of this assay is human norepinephrine transporter (hNET) (Homo sapiens, UniProt P23975). Put plainly: hNET uptake, Protocol B: cell based norepinephrine reuptake assay using recombinant hNET (MDCK-Net6 cells). The conditions noted are these: NE uptake (Protocol B) IC50 (nM), MDCK-Net6 cells, 3H-NE 16 nM.
Sequence of human norepinephrine transporter (hNET) (P23975 whole entry): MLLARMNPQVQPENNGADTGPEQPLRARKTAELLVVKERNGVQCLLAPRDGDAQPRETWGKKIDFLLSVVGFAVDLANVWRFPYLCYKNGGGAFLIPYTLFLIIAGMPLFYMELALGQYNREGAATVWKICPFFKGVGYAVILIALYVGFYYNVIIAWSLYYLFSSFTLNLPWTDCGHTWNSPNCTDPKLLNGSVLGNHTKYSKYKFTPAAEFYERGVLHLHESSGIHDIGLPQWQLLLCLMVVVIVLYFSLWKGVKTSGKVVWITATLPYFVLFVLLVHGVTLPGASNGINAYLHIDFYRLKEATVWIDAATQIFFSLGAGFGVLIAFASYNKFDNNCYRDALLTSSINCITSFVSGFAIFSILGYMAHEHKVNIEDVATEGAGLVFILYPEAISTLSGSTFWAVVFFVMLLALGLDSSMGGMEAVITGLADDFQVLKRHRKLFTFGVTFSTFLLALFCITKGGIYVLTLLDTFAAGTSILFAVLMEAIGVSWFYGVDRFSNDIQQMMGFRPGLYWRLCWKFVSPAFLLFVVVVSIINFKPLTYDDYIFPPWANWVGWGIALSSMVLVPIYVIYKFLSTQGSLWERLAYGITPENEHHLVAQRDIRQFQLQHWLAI
In the case of `CNCCCN1c2ccccc2N(c2cccc(C(F)(F)F)c2)S1(=O)=O` [Example 51, 3-{2,2-dioxido-3-[3-(trifluoromethyl)phenyl]-2,1,3-benzothiadiazol-1(3H)-yl}-N-methylpropan-1-amine hydrochloride], the IC50 turned out to be 3170 nM.

In the case of `CNCCCN1c2ccccc2N(c2ccccc2Cl)S1(=O)=O` [Example 52, 3-[3-(2-chlorophenyl)-2,2-dioxido-2,1,3-benzothiadiazol-1(3H)-yl]-N-methylpropan-1-amine hydrochloride], the IC50 was determined as 2.74 nM.

Consider `CNCCCN1c2ccccc2N(c2cccc(Br)c2)S1(=O)=O` [Example 53, 3-[3-(3-bromophenyl)-2,2-dioxido-2,1,3-benzothiadiazol-1(3H)-yl]-N-methylpropan-1-amine hydrochloride], for which the IC50 came out at 24.5 nM.

Turning to `NCCCN1c2ccccc2N(c2ccccc2F)S1(=O)=O` [Example 56, 3-[3-(2-fluorophenyl)-2,2-dioxido-2,1,3-benzothiadiazol-1(3H)-yl]propan-1-amine], the IC50 was 13.1 nM.

On to `CCNCCCN1c2ccccc2N(c2ccccc2F)S1(=O)=O` [Example 57, N-ethyl-3-[3-(2-fluorophenyl)-2,2-dioxido-2,1,3-benzothiadiazol-1(3H)-yl]propan-1-amine], for which the 50% inhibitory concentration (IC50) turned out to be 2.56 nM.

Regarding `NCCCCN1c2ccccc2N(c2ccccc2F)S1(=O)=O` [Example 58, 4-[3-(2-fluorophenyl)-2,2-dioxido-2,1,3-benzothiadiazol-1(3H)-yl]butan-1-amine], the IC50 is 3270 nM.

Take `CNCCCN1c2ccccc2N(c2ccc(F)cc2Cl)S1(=O)=O` [Example 60, 3-[3-(2-Chloro-4-fluorophenyl)-2,2-dioxido-2,1,3-benzothiadiazol-1(3H)-yl]-N-methylpropan-1-amine hydrochloride]: the IC50 came out at 40.2 nM.

For `NCCCN1c2ccccc2N(c2ccc(F)cc2Cl)S1(=O)=O` [Example 61, 3-[3-(2-Chloro-4-fluorophenyl)-2,2-dioxido-2,1,3-benzothiadiazol-1(3H)-yl]propan-1-amine hydrochloride], the IC50 was found to be 113 nM.

In the case of `CNCCCN1c2ccccc2N(c2ccc(F)cc2C)S1(=O)=O` [Example 62, 3-[3-(4-fluoro-2-methylphenyl)-2,2-dioxido-2,1,3-benzothiadiazol-1(3H)-yl]-N-methylpropan-1-amine], the IC50 came out at 50.9 nM.

For `Cc1cc(F)ccc1N1c2ccccc2N(CCCN)S1(=O)=O` [Example 63, 3-[3-(4-fluoro-2-methylphenyl)-2,2-dioxido-2,1,3-benzothiadiazol-1(3H)-yl]propan-1-amine], the IC50 was found to be 324 nM.

As for `CNCCCN1c2ccccc2N(c2ccc(F)cc2OC)S1(=O)=O` [Example 64, 3-[3-(4-fluoro-2-methoxyphenyl)-2,2-dioxido-2,1,3-benzothiadiazol-1(3H)-yl]-N-methylpropan-1-amine], the IC50 is 295 nM.

With `NCCCCCN1c2ccccc2N(c2ccccc2F)S1(=O)=O` [Example 65, 5-[3-(2-fluorophenyl)-2,2-dioxido-2,1,3-benzothiadiazol-1(3H)-yl]pentan-1-amine], the concentration for half-maximal inhibition (IC50) was found to be 14.1 nM.

On to `CNCCCCCN1c2ccccc2N(c2ccccc2F)S1(=O)=O` [Example 66, 5-[3-(2-fluorophenyl)-2,2-dioxido-2,1,3-benzothiadiazol-1(3H)-yl]-N-methylpentan-1-amine], for which the IC50 is 14.2 nM.

With `CN(C)CCCCCN1c2ccccc2N(c2ccccc2F)S1(=O)=O` [Example 67, 5-[3-(2-fluorophenyl)-2,2-dioxido-2,1,3-benzothiadiazol-1(3H)-yl]-N,N-dimethylpentan-1-amine], the 50% inhibitory concentration (IC50) is 298 nM.

In the case of `CNCCCN1c2ccccc2N(c2cccc(Cl)c2)S1(=O)=O` [Example 68, 3-[3-(3-Chlorophenyl)-2,2-dioxido-2,1,3-benzothiadiazol-1(3H)-yl]-N-methylpropan-1-amine hydrochloride], the IC50 is 84.1 nM.

`NCCCN1c2ccccc2N(c2c(F)cccc2F)S1(=O)=O` [Example 69, 3-[3-(2,6-Difluorophenyl)-2,2-dioxido-2,1,3-benzothiadiazol-1(3H)-yl]propan-1-amine hydrochloride]: the concentration for half-maximal inhibition (IC50) amounted to 10.4 nM.

In the case of `NCCCN1c2ccccc2N(c2c(F)cc(F)cc2F)S1(=O)=O` [Example 70, 3-[2,2-Dioxido-3-(2,4,6-trifluorophenyl)-2,1,3-benzothiadiazol-1(3H)-yl]propan-1-amine hydrochloride], the IC50 turned out to be 277 nM.

For `CNCCCN1c2ccc(-c3ccccc3)cc2N(c2ccccc2F)S1(=O)=O` [Example 71, 3-[3-(2-fluorophenyl)-2,2-dioxido-5-phenyl-2,1,3-benzothiadiazol-1(3H)-yl]-N-methylpropan-1-amine hydrochloride], the IC50 stood at 206 nM.

As for `NCCCN1c2ccccc2N(c2ccc(F)cc2F)S1(=O)=O` [Example 72, 3-[3-(2,4-difluorophenyl)-2,2-dioxido-2,1,3-benzothiadiazol-1(3H)-yl]propan-1-amine hydrochloride], the IC50 worked out at 259 nM.

`CNCCCN1c2cccc(F)c2N(c2ccccc2F)S1(=O)=O` [Example 73, 3-[4-fluoro-3-(2-fluorophenyl)-2,2-dioxido-2,1,3-benzothiadiazol-1(3H)-yl]-N-methylpropan-1-amine hydrochloride]: the IC50 came to 2.81 nM.

In the case of `NCCCN1c2cccc(F)c2N(c2ccccc2F)S1(=O)=O` [Example 74, 3-[4-fluoro-3-(2-fluorophenyl)-2,2-dioxido-2,1,3-benzothiadiazol-1(3H)-yl]propan-1-amine hydrochloride], the IC50 turned out to be 2.7 nM.

As to `CNCCCN1c2ccccc2N(c2ccc(F)cc2F)S1(=O)=O` [Example 75, 3-[3-(2,4-difluorophenyl)-2,2-dioxido-2,1,3-benzothiadiazol-1(3H)-yl]-N-methylpropan-1-amine hydrochloride], the IC50 stood at 4.17 nM.

Consider `CNCCCN1c2c(F)cccc2N(c2ccccc2F)S1(=O)=O` [Example 76, 3-[7-fluoro-3-(2-fluorophenyl)-2,2-dioxido-2,1,3-benzothiadiazol-1(3H)-yl]-N-methylpropan-1-amine], for which the IC50 was 5.24 nM.

As for `CNCCCN1c2ccccc2N(c2c(F)cc(F)cc2F)S1(=O)=O` [Example 77, 3-[2,2-Dioxido-3-(2,4,6-trifluorophenyl)-2,1,3-benzothiadiazol-1(3H)-yl]-N-methylpropan-1-amine hydrochloride], the IC50 stood at 15 nM.

Turning to `CNCCCN1c2c(F)cccc2N(c2ccc(F)cc2F)S1(=O)=O` [Example 78, 3-[3-(2,4-Difluorophenyl)-7-fluoro-2,2-dioxido-2,1,3-benzothiadiazol-1(3H)-yl]-N-methylpropan-1-amine hydrochloride], the IC50 came out at 45 nM.

As to `CNCCCN1c2cccc(F)c2N(c2ccc(F)cc2F)S1(=O)=O` [Example 79, 3-[3-(2,4-Difluorophenyl)-4-fluoro-2,2-dioxido-2,1,3-benzothiadiazol-1(3H)-yl]-N-methylpropan-1-amine hydrochloride], the IC50 worked out at 9 nM.

Regarding `CN(C)CCCN1c2c(F)cccc2N(c2ccc(F)cc2F)S1(=O)=O` [Example 80, 3-[3-(2,4-Difluorophenyl)-7-fluoro-2,2-dioxido-2,1,3-benzothiadiazol-1(3H)-yl]-N,N-dimethylpropan-1-amine hydrochloride], the IC50 stood at 448 nM.

In general, IC50 refers to the midpoint of a concentration-inhibition curve.
